{"source": "patent US4769235A", "about": "“Immunodominant epitope of the circumsporozoite surface protein” (New York University, priority 1984, dated 1988)", "key": {"[1]": {"test_system": "binding of monoclonal antibody 2G3 to the CS protein P. knowlesi", "test": "Inhibition radioimmunoassay: binding of 125I-labelled monoclonal antibody 2G3 to P. knowlesi CS protein", "settings": "for Inhibitory activity on binding of monoclonal antibody 2G3 to CS protein (in words): FIGS. 1, 2 / Table 3", "protocol": "(§1) The immunoactivity of the synthetic peptides was evaluated by measuring their ability to inhibit the reaction between the monoclonal anti-CS and the antigen (CS protein). Antigen was purified from sporozoites, as disclosed in the Malaria Vaccine patent application and as also described by Vanderberg, supra, and Zavala, F., et al, supra, 1982, is preferably employed using ^125 I-labeled antibody.\n(§2) Competitive inhibition of the antigen-antibody reaction by the thus synthesized peptides was measured by the following radioimmunoassay. P. knowlesi sporozoite CS protein was used as the antigen.\n(§3) (a) Preparation of antigen: 3,000 purified P. knowlesi sporozoites (Vanderberg et al., Military Medicine 134:1183, 1969) in 50 μl of phosphate buffered saline (PBS) containing protease inhibitors, were delivered to the bottom of polystyrene (Falcon 3911 plate, B-D and Co., Oxnard, Calif.) microtiter plates, which were sealed with parafilm and frozen at -70° C. for at least ten minutes. The plates were then allowed to defrost slowly at room temperature. This procedure was repeated six times. Then the plates were incubated at 4° C. overnight, and at 56° C. for five minutes. The P. knowlesi extract was then removed from the wells and these were washed three times with PBS containing 1% bovine serum albumin (BSA) and 0.1% NaN3. The wells were then filled with PBS-BSA-NaN3 for a few hours at room temperature.\n(§4) All synthetic peptides were dissolved in PBS at a concentration of 10 mM and subsequently diluted serially in PBS-1% BSA/0.1% NaN3. Twenty-five μl of serial dilutions of each peptide were added to the wells coated with antigen. Control wells received only the diluent. Then, 25 μl of the ^125 I-labelled monoclonal antibody (about 5-10ng, 10 ^5 cpm) were added to the wells. The microtiter plates were incubated at 4° C. for 18 hours, washed 5 times with PBS-BSA-NaN3 and then the wells were counted for well-bound antibody. (LKB 1260 Muilti-gamma γ-counter LKB Instruments, Inc., Gaithersburg, Md.). […]"}, "[2]": {"test_system": "binding of monoclonal antibody 5H8 to the CS protein P. knowlesi", "test": "Inhibition radioimmunoassay: binding of 125I-labelled monoclonal antibody 5H8 to P. knowlesi CS protein", "settings": "summary of FIGS. 1, 3 / Table 3", "protocol": "as §1, §2\n(§5) (a) Preparation of antigen: 3,000 purified P. knowlesi sporozoites (Vanderberg et al., Military Medicine 134:1183, 1969) in 50 μl of phosphate buffered saline (PBS) containing protease inhibitors, were delivered to the bottom of polystyrene (Falcon 3911 plate, B-D and Co., Oxnard, Calif.) microtiter plates, which were sealed with parafilm and frozen at -70° C. for at least ten minutes. The plates were then allowed to defrost slowly at room temperature. This procedure was repeated six times. […]\n(§6) All synthetic peptides were dissolved in PBS at a concentration of 10 mM and subsequently diluted serially in PBS-1% BSA/0.1% NaN3. […] The microtiter plates were incubated at 4° C. for 18 hours, washed 5 times with PBS-BSA-NaN3 and then the wells were counted for well-bound antibody. […]"}, "[3]": {"test_system": "binding of radiolabelled 8E11 to the CS protein of P. knowlesi", "test": "Inhibition radioimmunoassay: binding of radiolabelled monoclonal antibody 8E11 to P. knowlesi CS protein", "protocol": "as §1, §2, §3, §4"}, "[4]": {"test_system": "monoclonal anti-CS / CS protein of P. knowlesi", "test": "Reactivity of synthetic peptides with monoclonal anti-CS (antibody not specified)", "type": "binding", "settings": "antibody not given; compared with (1-12) or (5-12) where stated", "protocol": "Four monoclonal antibodies (2G3, 5H8, 8B8, and 8E11) were used in immunoactivity testing of synthesized shorter length analogs of the 12-peptide. The purpose was further localization and identification of the epitope contained therein.\nAfter synthesis, cleavage and purification, the peptides were tested for reactivity with monoclonal anti-CS, preferably partially purified. The anti-CS used in these tests were produced by ascites tumor induction using hybridoma cells resulting from the fusion of plasmacytoma cells with spleen cells of a mouse immunized with the parasite, as described by Cochrane, A. H. et al, supra, and as disclosed in the Malaria Vaccine patent application.\nThe immunoactivity of the synthetic peptides was evaluated by measuring their ability to inhibit the reaction between the monoclonal anti-CS and the antigen (CS protein). […]\nCompetitive inhibition of the antigen-antibody reaction by the thus synthesized peptides was measured by the following radioimmunoassay. […]\nas §6"}, "[5]": {"test_system": "monoclonal antibody 2G3 against the surface protein of P. knowlesi", "test": "Binding of 125I-labelled tetraeicosapeptide to Sepharose beads bearing monoclonal antibody 2G3", "set-up": "species or system mouse", "excerpt": "(§7) Monoclonal antibodies against surface antigens of sporozoites of the simian malaria parasite Plasmodium knowlesi were produced by fusion of plasmacytoma cells with spleen cells of a mouse immunized witn the parasite as previously described by Cochrane et al., supra., (1982) and described in detail in the Malaria Vaccine patent application. The monoclonal antibodies (four idiotypes: 2G3, 8B8, 5H8 and 8E11 were partially purified from ascites of mice bearing hybridomas by 50% ammonium sulphate precipitation followed by molecular sieve chromatography on Sephadex G-200.\n(§8) To determine whether the 24-peptide is recognized by all monoclonal antibodies, 5 mg of purified monoclonal antibodies were bound to 1 ml of CNBr activated Sepharose 4B (Pharmacia Fine Chemicals, Piscataway, N.J., U.S.A.) according to instructions of the manufacturer. The 24 amino acid peptide was radiolabelled with ^125 I with the Boulton-Hunter reagent, to a specific activity of approximately 10^4 cpm/μg. Twenty μl of beads bearing the different antibodies were incubated for 60 minutes at room temperature in the presence of 100 μl of PBS-BSA containing either 1 μg of the radiolabelled peptide alone or radiolabelled peptide in the presence of […] of cold tetraeicosapeptide. The beads were then washed by centrifugation with PBS-BSA and counted in a gamma-counter."}, "[6]": {"test_system": "monoclonal antibody 5H8 against the surface protein of P. knowlesi", "test": "Binding of 125I-labelled tetraeicosapeptide to Sepharose beads bearing monoclonal antibody 5H8", "set-up": "species or system mouse", "excerpt": "as §7, §8"}, "[7]": {"test_system": "monoclonal antibody 8B8 against the surface protein of P. knowlesi", "test": "Binding of 125I-labelled tetraeicosapeptide to Sepharose beads bearing monoclonal antibody 8B8", "set-up": "species or system mouse", "excerpt": "as §7, §8"}, "[8]": {"test_system": "monoclonal antibody 8A8 against the surface protein of P. knowlesi", "test": "Binding of 125I-labelled tetraeicosapeptide to Sepharose beads bearing monoclonal antibody 8A8", "set-up": "species or system mouse"}, "[9]": {"test_system": "monoclonal antibody (3D11) against the surface protein of P. berghei", "test": "Binding of 125I-labelled tetraeicosapeptide to control beads bearing monoclonal antibody 3D11", "protocol": "as §8"}, "monoclonal antibody 8E11": {"test_system": "monoclonal antibody 8E11", "test": "Binding of 125I-labelled tetraeicosapeptide to Sepharose beads bearing monoclonal antibody 8E11", "set-up": "species or system mouse", "settings": "other experiments, not shown", "excerpt": "as §7, §8"}, "monoclonal antibody 6B8": {"test_system": "monoclonal antibody 6B8", "test": "Binding of 125I-labelled tetraeicosapeptide to Sepharose beads bearing monoclonal antibody 6B8", "set-up": "species or system mouse", "settings": "other experiments, not shown", "excerpt": "as §7, §8"}, "[10]": {"test_system": "binding of monoclonal antibody 2G3 to the CS protein P. knowlesi", "settings": "cited from earlier work"}, "[11]": {"test_system": "binding of monoclonal antibody 8B8 to the CS protein P. knowlesi", "test": "Inhibition radioimmunoassay: binding of 125I-labelled monoclonal antibody 8B8 to P. knowlesi CS protein", "settings": "text summary of FIG. 4 / Table 3", "protocol": "as §1, §2, §5, §6"}, "[12]": {"settings": "2G3 beads in PBS-BSA + excess of cold tetraeicosapeptide"}, "[13]": {"settings": "5H8 beads in PBS-BSA + excess of cold tetraeicosapeptide"}, "[14]": {"settings": "8B8 beads in PBS-BSA + excess of cold tetraeicosapeptide"}, "[15]": {"settings": "8A8 beads in PBS-BSA + excess of cold tetraeicosapeptide"}, "[16]": {"settings": "control 3D11 beads suspended in PBS-BSA"}}, "note": "“Also recorded” adds a separate entry of the source. No end group written: not given here.", "data": [{"substance": "H-QAQGDGANAGQPQAQGDGANAGQP-NH2 [Peptide 1-24]", "values": [{"measurement": "Inhibitory activity on binding of monoclonal antibody 2G3 to CS protein (in words)", "setting": "[1]", "result": "almost identical"}, {"measurement": "Inhibitory activity on binding of monoclonal antibody 5H8 to CS protein (in words)", "setting": "[2]", "result": "almost identical"}, {"measurement": "Inhibition of binding of antibody 8E11 to CS protein (in words)", "setting": "[3]", "result": "inhibited"}, {"measurement": "IC50", "setting": "[3]; FIG. 1, read-out: Concentration giving about 50% inhibition of binding of radiolabelled 8E11 to the CS protein", "result": "~10", "unit": "µM"}, {"measurement": "Reactivity with monoclonal anti-CS (in words)", "setting": "[4]", "result": "reacted"}, {"measurement": "% of input of radiolabelled tetraeicosa peptide that bound to the beads", "setting": "[5]; [12]", "result": "0.2 % of input"}, {"measurement": "cpm of radiolabelled tetraeicosa peptide that bound to the beads", "setting": "[5]; [12]", "result": 25, "unit": "cpm"}, {"measurement": "% of input of radiolabelled tetraeicosa peptide that bound to the beads", "setting": "[5]; 2G3 beads suspended in PBS-BSA", "result": "25.8 % of input"}, {"measurement": "cpm of radiolabelled tetraeicosa peptide that bound to the beads", "setting": "[5]; 2G3 beads suspended in PBS-BSA, 1 μg radiolabelled peptide", "result": 2922, "unit": "cpm"}, {"measurement": "% of input of radiolabelled tetraeicosa peptide that bound to the beads", "setting": "[6]; [13]", "result": "0.2 % of input"}, {"measurement": "cpm of radiolabelled tetraeicosa peptide that bound to the beads", "setting": "[6]; [13]", "result": 20, "unit": "cpm"}, {"measurement": "% of input of radiolabelled tetraeicosa peptide that bound to the beads", "setting": "[6]; 5H8 beads suspended in PBS-BSA", "result": "19.7 % of input"}, {"measurement": "cpm of radiolabelled tetraeicosa peptide that bound to the beads", "setting": "[6]; 5H8 beads suspended in PBS-BSA", "result": 2332, "unit": "cpm"}, {"measurement": "% of input of radiolabelled tetraeicosa peptide that bound to the beads", "setting": "[7]; [14]", "result": "0.2 % of input"}, {"measurement": "cpm of radiolabelled tetraeicosa peptide that bound to the beads", "setting": "[7]; [14]", "result": 20, "unit": "cpm"}, {"measurement": "% of input of radiolabelled tetraeicosa peptide that bound to the beads", "setting": "[7]; 8B8 beads suspended in PBS-BSA", "result": "27.8 % of input"}, {"measurement": "cpm of radiolabelled tetraeicosa peptide that bound to the beads", "setting": "[7]; 8B8 beads suspended in PBS-BSA", "result": 3155, "unit": "cpm"}, {"measurement": "% of input of radiolabelled tetraeicosa peptide that bound to the beads", "setting": "[8]; [15]", "result": "0.2 % of input"}, {"measurement": "cpm of radiolabelled tetraeicosa peptide that bound to the beads", "setting": "[8]; [15]", "result": 25, "unit": "cpm"}, {"measurement": "% of input of radiolabelled tetraeicosa peptide that bound to the beads", "setting": "[8]; 8A8 beads suspended in PBS-BSA", "result": "10.3 % of input"}, {"measurement": "cpm of radiolabelled tetraeicosa peptide that bound to the beads", "setting": "[8]; 8A8 beads suspended in PBS-BSA", "result": 1092, "unit": "cpm"}, {"measurement": "cpm of radiolabelled tetraeicosa peptide that bound to the beads", "setting": "[9]; control 3D11 beads in PBS-BSA + excess of cold tetraeicosapeptide", "result": 0, "unit": "cpm"}, {"measurement": "% of input of radiolabelled tetraeicosa peptide that bound to the beads", "setting": "[9]; [16]", "result": "0.2 % of input"}, {"measurement": "cpm of radiolabelled tetraeicosa peptide that bound to the beads", "setting": "[9]; [16]", "result": 25, "unit": "cpm"}, {"measurement": "Binding of radiolabelled (1-24) to beads bearing 8E11 (in words)", "setting": "monoclonal antibody 8E11", "result": "Analogous results"}, {"measurement": "Binding of radiolabelled (1-24) to beads bearing 6B8 (in words)", "setting": "monoclonal antibody 6B8", "result": "Analogous results"}, {"measurement": "Reactivity with monoclonal anti-CS 2G3 (previous work)", "setting": "[10]", "result": "interacted simultaneously with two molecules of 2G3"}]}, {"substance": "QAQGDGANAGQP-NH2 [Peptide 1-12, NH2 Gln-Ala-Gln-Gly-Asp-Gly-Ala-Asn-Ala-Gly-Gln-ProCONH2]", "values": [{"measurement": "Inhibitory activity on binding of monoclonal antibody 8B8 to CS protein (in words)", "setting": "[11]", "result": "strongly inhibitory"}, {"measurement": "Inhibitory activity on binding of monoclonal antibody 2G3 to CS protein (in words)", "setting": "[1]", "result": "almost identical; also recorded: strongly inhibitory"}, {"measurement": "Molar concentration of peptide (×5) necessary for 50% inhibition of binding of monoclonal antibody 2G3", "setting": "[1]; head prints (×5), radiolabeled 2G3, CS protein P. knowlesi immobilized on wells, 4° C. for 18 hours", "result": "10^-13 Molar"}, {"measurement": "Inhibitory activity on binding of monoclonal antibody 5H8 to CS protein (in words)", "setting": "[2]", "result": "almost identical; also recorded: strongly inhibitory"}, {"measurement": "Inhibitory effect on binding of 8E11 to CS protein at a fixed concentration", "setting": "[3]; at a concentration of 10^-2 M", "result": "no appreciable inhibitory effect"}, {"measurement": "Reactivity with monoclonal anti-CS (in words)", "setting": "[4]", "result": "very efficient inhibitors"}, {"measurement": "Reactivity with monoclonal anti-CS 2G3 (previous work)", "setting": "[10]", "result": "very effectively inhibited"}]}]}
